Results as given in US20260083838A1, “Adjuvant Composition Comprising STING Agonists” (GlaxoSmithKline Biologicals SA, priority 2021, published 2026).

Tests used:
Type in all cases: physicochemical
[1] = Compatibility between the antigen and the STING agonist (HPLC, SDS PAGE of supernatant after centrifugation); conditions: groups 2, 3, 4: 45, 15, 5 μg/ml STING agonist aqueous, 20 μg/mL HSV-2 gE-gI, no added Al(OH)3
Procedure: (§1) The compatibility between the antigen and the STING agonist was assessed, on the one hand, by determining the amount of the STING agonist recovered (using HPLC) in the supernatant after centrifugation of the formulations described in the above groups 2, 3 and 4, and, on the other hand, by determining the amount and profile of the antigen recovered (using HPLC) in the supernatant after centrifugation of the formulations described in the above groups 2, 3 and 4. The adsorption of the STING agonist and the antigen on Al(OH)3 was similarly assessed by determining the amount of STING agonist and amount and profile of the antigen, respectively, recovered) in the supernatant after centrifugation of the formulations described in the above groups 5, 6, 7 and 8. The concentration of the HSV-2 gE-gI antigen was 20 μg/mL in each group. The precise methodology for preparing the STING agonist and Al(OH)3 formulation was as follows: a solution of Al(OH)3 in water for injection was prepared, the required amount of STING agonist was added, the required amount of HSV-2 gE-gI to have 20 μg/mL in final solution was added. The solution was then mixed for 30 minutes at room temperature. NaCl was added, and the mixture was mixed for 5 minutes.

[2] = Adsorption of the STING agonist and the antigen on Al(OH)3 (supernatant after centrifugation); conditions: groups 5, 6, 7, 8: 45, 15, 5 μg/ml STING agonist with 111 μg/ml Al(OH)3, or 15 μg/ml with 35 μg/ml Al(OH)3; antigen 20 μg/mL
Procedure: as §1

[3] = Minimal amount of Al(OH)3 needed to fully adsorb the STING agonist (fluorometry of supernatant); conditions: STING agonist 45 μg/ml, Al(OH)3 0 to 200 μg/ml (by reference to Al3+)
Procedure: 1.2 Next, the minimal amount of Al(OH)3 needed to fully adsorb the STING agonist was determined. Compound 1 was used. The amount of the STING agonist was fixed at 45 μg/ml and AL(OH)3 varied from 0 to 200 μg/ml (by reference to Al^3+), so that different ratios STING agonist:Al(OH)3 were tested. The different formulations (as indicated in Table 2) were mixed under agitation for 1 h. Samples were then centrifuged for 10 min at 8000 rpm. The supernatant of the centrifuged samples was then analysed to characterize the amount of STING agonist which was not adsorbed. The quantification was performed by fluorometry.

SMILES: CCn1nc(C)cc1C(=O)/N=c1\[nH]c2cc(C(N)=O)cc(OC)c2n1C/C=C/Cn1/c(=N/C(=O)c2cc(C)nn2CC)[nH]c2cc(C(N)=O)cc(OCCCOP(=O)(O)O)c21 [Compound 1, 3-(((E)-6-carbamoyl-3-((E)-4-((E)-5-carbamoyl-2-((1-ethyl-3-methyl-1H-pyrazole-5-carbonyl)imino)-7-methoxy-2,3-dihydro-1H-benzo[d]imidazol-1-yl)but-2-en-1-yl)-2-((1-ethyl-3-methyl-1H-pyrazole-5-carbonyl)imino)-2,3-dihydro-1H-benzo[d]imidazol-4-yl)oxy)propyl dihydrogen phosphate]
- amount of STING agonist in supernatant of centrifuged vs non-centrifuged samples [1]: no aggregation or precipitation occurs in the presence of the antigen
- adsorption of STING agonist on Al(OH)3 (STING agonist in supernatant) [2]: entire amount of the STING agonist was adsorbed on Al(OH)3
- adsorption of STING agonist on Al(OH)3 (in words) [3]: generally well adsorbed on Al(OH)3
- maximum ratio STING agonist to aluminium hydroxide allowing for an optimal adsorption [3]: about 1.5
